Results from patent publication US6399356B1, “Process and agent for sanitation of contaminations caused by viruses” (priority 1998, dated 2002).

Key:
[1] = tested on: reo-3-virus; assay: Sanitization of a DEAE-Sephadex chromatography column contaminated with virus
Method: 1 g of DEAE-Sephadex A-50 (pre-swollen) was added as a slurry in 20 ml of PBS (pH 7.2) to 500 ml of a reo-3-virus-containing aqueous solution (cell culture supernatant with 5% FCS) having a virus titer (CCID50) of 5.5 log10. After stirring for 30 min at approximately 20° C., all the material was transferred to a chromatography column and, after sedimentation of the resin, the column was emptied. The resin was then washed with 150 ml of wash buffer (0.2 M NaCl, pH 6.0 by means of KH2PO4/NaOH) and finally eluted with elution buffer (2.0 M NaCl, pH 8.0 by means of KH2PO4/NaOH). For sanitization, the column was washed (in countercurrent) with 3 column volumes of a wash buffer containing carvacrol solution (1:2000) and allowed to stand overnight at approximately 20° C. under this carvacrol solution. The column was then regenerated with wash buffer.

[2] = tested on: non-cytopathogenic pestivirus strain in MDBK cell culture; assay: Sanitization of a cell culture: titration of cytopathogenic BVDV strain on treated MDBK indicator cells; format: cell-based
Method: The infection of the cell culture can be followed, inter alia, by the (fetal) calf serum necessary for cell culture.
An MDBK cell culture which is infected with a non-cytopathogenic pestivirus strain is passaged as is customary (splitting rate 1:5; Eagles Minimal Essential Medium containing 5% FCS) and two cell culture flasks are prepared. One cell culture flask remains untreated, the second cell culture flask is treated with thymol (1:50,000). Both cell culture flasks are passaged weekly, the treatment of the cell culture being carried out for 3 passages. After one passage without treatment, cells from the respective cell culture flasks are inoculated into microtiter plates and a titration (end point dilution method) of a cytopathogenic BVDV strain (Denmark) is carried out on the respective indicator cells. The cytopathogenic effect is evaluated as an indication of virus replication and the virus titer is calculated (Spaerman-Kärber method; Table 2).

[3] = carvacrol solution (1:2000) after about 16 hours' incubation at approximately 20° C. (12 ml)
[4] = wash buffer after sanitation with carvacrol, 2nd column volume (12 ml)

## Cc1ccc(C(C)C)cc1O [Carvacrol solution, carvacrol]
[1]; [3]
  Virus load (Titer × volume): ≦2.6 [log10]
  Virus titer: ≦1.5 CCID50/ml[log10]
[1]; carvacrol solution (1:2000) in wash buffer, 1st column volume (12 ml), titer determined immediately after obtaining the sample, starting material 5.5
  Virus titer: 4.2 CCID50/ml[log10]
[1]; carvacrol solution (1:2000), 1st column volume (12 ml), determined immediately after obtaining the sample, starting material 8.2
  Virus load (Titer × volume): 5.3 [log10]
[1]; sanitization of DEAE-Sephadex column with carvacrol solution (1:2000) overnight
  Inactivation of reo-3-virus on the column: complete inactivation of reo-3-virus below the detection limit
[1]; [4]
  Virus load (Titer × volume): ≦2.6 [log10]
  Virus titer: ≦1.5 CCID50/ml[log10]

## Cc1ccc(C(C)C)c(O)c1 [thymol]
[2]; MDBK cells infected with non-cytopathogenic pestivirus, 3 passages treated with thymol (1:50,000), then one passage without treatment, untreated 3.9, starting culture 4.3
  Virus titer of cytopathogenic BVDV strain (Denmark) on the indicator cells: 7.6 (CCID50ml) [log10]
[2]; thymol (1:50,000), 3 passages
  Inactivation of non-cytopathogenic pestivirus in MDBK cells: the non-cytopathogenic pestivirus is inactivated
